Source: BindingDB's records for doi:10.7270/Q24X565S (The Scripps Research Institute Molecular Screening Center, 2007)
Structures can show the parent of a compound that is named as a salt.

target: cAMP-dependent protein kinase catalytic subunit alpha (Homo sapiens, UniProt P17612); assay: PKA catalytic subunit inhibitors, dose response, biochemical, Kinase-Glo luminescence, Kemptide substrate (AID 548); conditions: not given

Structure (SMILES)	IC50 [µM]
c1ccc(CCCNc2[nH]cnc3ncnc2-3)cc1	39.5
CCC1CCCCN1c1nc(-c2ccncc2)nc2ccccc12 (centres undefined) [4-(2-ethyl-1-piperidinyl)-2-pyridin-4-ylquinazoline]	13.6
CC(=O)n1cc(-c2ccncc2)c2ccccc21 [1-(3-pyridin-4-yl-1-indolyl)ethanone;hydrochloride]	45
Nc1c(S(=O)(=O)c2cccc(Cl)c2)c2c(n1N=CC1=CC(=O)C(=O)C=C1)Nc1ccccc1N2 [4-[[2-azanyl-3-(3-chlorophenyl)sulfonyl-4,9-dihydropyrrolo[3,2-b]quinoxalin-1-yl]iminomethyl]cyclohexa-3,5-diene-1,2-dione]	> 59.6
c1nc(NC2CCCCC2)c2[nH]cnc2n1 [N-cyclohexyl-7H-purin-6-amine]	8.94
O=NCc1c[nH]c2ccccc12 [MLS000104363]	34.4
Cc1cc2c(ccc3[nH]onc32)n1 [MLS000038925]	50.5
c1nc(N2CCCC2)c2[nH]cnc2n1 [6-(1-pyrrolidinyl)-7H-purine]	35.6
Cc1cc2ccccc2c(=O)n1CC(=O)Nc1ccc2c(c1)OCO2 [MLS000086255]	> 59.6
Clc1ccc(OCCN2CCN(c3ncnc4sccc34)CC2)cc1 [4-[4-[2-(4-chloranylphenoxy)ethyl]piperazin-1-yl]thieno[2,3-d]pyrimidine]	59.2
Nc1nonc1-n1nncc1-c1ccccc1 [4-(5-phenyl-1,2,3-triazol-1-yl)-1,2,5-oxadiazol-3-amine]	> 59.6
CN(C(=O)COc1ccccc1)c1nnc(-c2ccncc2)s1 [MLS000075421]	> 59.6
O=C(CSc1nnc(-c2ccncc2)[nH]1)c1ccccc1	24.6
Nc1[nH]nc2nc(N3CCCC3)nc(-c3ccccc3)c12	> 59.6
c1ccc2c(-c3ccncc3)c[nH]c2c1	11.3
COc1ccc2c(Cl)c(C(N)=O)sc2c1 [3-Chloro-6-methoxy-benzo[b]thiophene-2-carboxylic acid amide]	> 59.6

Structure (SMILES)	IC50 [µM]
CCOc1ccc2nc3ccc4[nH]onc4c3c2c1 [SMR000111865]	> 59.6
Cn1c(SCc2ccc(Br)cc2)nnc1-c1ccncc1 [4-[5-[(4-bromobenzyl)thio]-4-methyl-1,2,4-triazol-3-yl]pyridine]	> 59.6
CCc1cc2c(O)ncnc2s1 [MLS000029626]	> 59.6
Fc1ccccc1N1CCN(c2ncnc3n[nH]cc23)CC1 [4-[4-(2-fluorophenyl)piperazin-1-yl]-1H-pyrazolo[3,4-d]pyrimidine]	52.3
Cc1ccc(SCc2nc(-c3ccncc3)no2)cc1 [4-(5-{[(4-methylphenyl)thio]methyl}-1,2,4-oxadiazol-3-yl)pyridine]	> 59.6
Cc1c2ccncc2c(C)c2c1[nH]c1ccccc12 [5,11-dimethyl-2H-pyrido[4,3-b]carbazole]	4.09
Cc1ccc(S(=O)(=O)NCCSc2nnnn2-c2ccc(C(N)=O)cc2)cc1 [4-[5-[2-(tosylamino)ethylthio]tetrazol-1-yl]benzamide]	10.4
Fc1cc2nc(-c3ccncc3)[nH]c2cc1F [SMR000040673]	> 59.6
c1ccc(Cn2ncc3c2ncn2nc(-c4ccncc4)nc32)cc1 [MLS000078634]	> 19.9
O=C(CCCOc1ccccc1)Nc1ccncc1 [4-Phenoxy-N-pyridin-4-yl-butyramide]	> 59.6
COc1cc2c(cc1NC(=O)COC(=O)Cn1cnc3ccccc31)oc1ccccc12 [2-(1-benzimidazolyl)acetic acid [2-[(2-methoxy-3-dibenzofuranyl)amino]-2-oxoethyl] ester]	37.5
c1ccc(Cn2ncc3c2ncn2c(-c4ccncc4)nnc32)cc1 [7-Benzyl-3-pyridin-4-yl-7H-pyrazolo[4,3-e][1,2,4]triazolo[4,3-c]pyrimidine]	> 19.9
CCN1CCN(Cc2nnnn2C(C)(C)C)CC1 [1-(1-tert-Butyl-1H-tetrazol-5-ylmethyl)-4-ethyl-piperazine]	> 59.6
Cc1cccc(NC(=O)CSc2n[nH]c(-c3ccncc3)n2)c1 [N-(3-methylphenyl)-2-[(5-pyridin-4-yl-1H-1,2,4-triazol-3-yl)thio]acetamide]	> 59.6
C1=C(c2c[nH]c3ccccc23)CCNC1	> 59.6

same assay, conditions: inactive by the depositor's call

Structure (SMILES)	IC50 [µM]
Fc1ccccc1Cn1nnc2c(-n3ccnc3)ncnc21 [3-(2-Fluoro-benzyl)-7-imidazol-1-yl-3H-[1,2,3]triazolo[4,5-d]pyrimidine]	231
NC(=O)c1sc2nc(N3CCCCC3)c3c(c2c1N)CCCC3 [1-amino-5-(1-piperidinyl)-6,7,8,9-tetrahydrothieno[2,3-c]isoquinoline-2-carboxamide]	358
CC1(C)Cc2c(c(-c3ccco3)nc3n[nH]c(N)c23)CO1 [SMR000045457]	70.1
